{"source": "paper PMC12367891", "about": "“Structure–metabolism relationships of 4-pentenyl synthetic cannabinoid receptor agonists using in vitro human hepatocyte incubations and high-resolution mass spectrometry” (Archives of Toxicology, 2025)", "tested_on": "pooled human hepatocytes", "assay": "Incubation with pooled human hepatocytes, metabolite identification by LC-QTOF-MS", "format": "in vitro ADME", "conditions": "5 µM, HHeps, up to 3 h", "description": "Incubations of the SCRAs with HHeps and subsequent metabolite identification were carried out as previously described in a published procedure, with slight modifications (Åstrand et al. [2019]; Stalberga et al. [2022]). To summarise, 5 µM of each SCRA was incubated with HHeps (100,000 cells) at 37 °C, 5% CO2 in a total volume of 100 μL of Williams E medium supplemented with L-glutamine and HEPES. Incubations were carried out in duplicate and quenched by the addition of 100 µL ice-cold acetonitrile at 0, 0.5, 1 and 3 h, after which the incubates were centrifuged at 1,100 × g for 15 min at 4 °C. The resulting supernatant was analysed by LC–QTOF-MS. On each day, negative controls (HHeps without drug) and degradation controls (drug without HHeps) were also incubated for 3 h.\nChromatographic separation was achieved using an Agilent 1290 Infinity ultra-high performance liquid chromatography (UHPLC) system (Agilent Technologies, Kista, Sweden); 4 µL supernatant was injected onto an Acquity HSS T3 column (150 × 2.1 mm, 1.8 μm) fitted with an Acquity VanGuard precolumn (Waters, Sollentuna, Sweden). Gradient elution was employed using 0.1% formic acid in water (A) and 0.1% formic acid in acetonitrile (B) mobile phases: 1% B (0–0.6 min); 1–20% B (0.6–0.7 min); 20–85% B (0.7–13 min); 85–95% B (13–15 min); 95% B (15–18 min); 95–1% B (18–18.1 min); 1% B (18.1–19 min), with a flow rate of 0.5 mL/min and column temperature of 60 °C. The UHPLC system was coupled to an Agilent 6550 iFunnel QTOF mass spectrometer (Agilent Technologies, Kista, Sweden) with a Dual Agilent Jet Stream electrospray ionisation (ESI) source. […]\nTo identify structure–metabolism relationships, the total proportion (%) that each type of biotransformation contributed to the summed abundance of metabolites (as measured by peak area) across the 0.5, 1 and 3 h incubations was determined. […]"}
{"smiles": "C=CCCCN1C(=O)/C(=N\\NC(=O)c2ccccc2)c2ccccc21", "note": "[BZO-4en-POXIZID]", "values": [{"measurement": "abundances of metabolites relative to the parent compound", "result": "small relative to the parent compound"}]}
{"smiles": "C=CCCCn1nc(C(=O)NC(C(=O)OC)C(C)(C)C)c2ccccc21", "note": "(stereo not drawn) [MDMB-4en-PINACA, methyl 3,3-dimethyl-2-{[1-(pent-4-en-1-yl)-1H-indazole-3-carbonyl]amino}butanoate]", "values": [{"measurement": "most abundant metabolite", "result": "ester hydrolysis metabolite"}]}
{"smiles": "C=CCCCn1cc(C(=O)NC(C(=O)OC)C(C)(C)C)c2ccccc21", "note": "(stereo not drawn) [MDMB-4en-PICA]", "values": [{"measurement": "most abundant metabolite", "result": "ester hydrolysis metabolite"}]}
